Measurements: patent publication US20260232752A1, “COMBINATION THERAPY METHODS, COMPOSITIONS AND KITS” (Accure Therapeutics, S.L., priority 2019, published 2026)

What was measured:
[1] = test system: EAE in C57BL6 mice immunized with MOG35-55; test: Example 4: BN201 and STAT3 inhibitor combination, chronic phase of EAE; format: in vivo, mouse; settings: BN201 50 mg/kg i.p. alone (optimal), from day 34 to day 54
Method: Effect during the chronic phase of the disease in the animal model of Multiple Sclerosis (i.e., EAE in C57BL6 mice immunized with MOG35-55)
Efficacy and safety of combination therapy with optimal doses of BN201 (50 mg/kg) and S31-201 (5 mg/kg) in the progression of chronic EAE in mice.
Starting the chronic phase of the disease (by day 34) mice were administered: • the STAT3 inhibitor S31-201 (group A, 7 mice), • BN201 (group B, 6 mice), or • a combination thereof (group C, 6 mice) once a day for six days per week at optimal dosages (5 mg/kg for S31-201, 50 mg/kg for BN201).
S31-201 and BN201 were administered via i.p. injection in a saline vehicle at a volume of 5 mL/kg. Control mice received vehicle only via both oral and i.p. injection (group D, 6 mice) or nothing at all (group E, 2 mice). Mice were treated from day 34 (chronic EAE stage) until the end of the experiment on day 54.
The combination of BN201 and the STAT3-inhibitor S31-201 was evaluated for its effect during the chronic phase of the disease in the animal model of Multiple Sclerosis (i.e., EAE in C57BL6 mice immunized with MOG35-55). The objective of the study was to evaluate the efficacy and safety of combination therapy with optimal doses of BN201 (50 mg/kg) and 531-201 (5 mg/kg) in the progression of chronic EAE in mice. […]

[2] = test system: experimental autoimmune encephalomyelitis (EAE) mouse model; test: Study EAE-C06: dose response of BN201, clinical score in EAE mouse model; format: in vivo; settings: almost all days of observation/treatment (Day 2 to day 30)
Method: A third experiment (Study EAE-C06) to test dose response of BN201 was then performed using the same mouse model.
Study EAE-C06: five different concentrations of BN201: 12.5 mg/kg, 25 mg/kg, 50 mg/kg, 100 mg/kg, and 150 mg/kg. Also sham, pathological control and FTY720 (2 mg/kg) comparator groups were included in the experiment. All groups were administered daily.
Clinical scores were assigned to assess disease severity using the following scale: 0=normal; 0.5=Partial tail paralysis; 1=Complete tail paralysis; 1.5=Tail paralysis and loss of righting reflex; 2=Partial hind limb paralysis/paralysis of one limb; 2.5=One limb paralysis and partial loss of activity of one other limb; 3=Bilateral hind limb paralysis; 4=Moribund; 5=exitus.
Therapeutic treatment was initiated on day 12 once each mouse started showing complete tail paralysis (Score 1).
Data are depicted in FIG. 1 (C), wherein the clinical score for each of the tested groups is plotted per day after disease onset.

[3] = test system: experimental autoimmune encephalomyelitis (EAE) mouse model; test: Study EAE-C03: clinical score in EAE mouse model, treatment in chronic phase; format: in vivo; settings: after 17 days of treatment, treatment started in chronic phase
Method: Three in vivo studies supporting the medical plausibility of BN201 in the treatment of MS and optic neuritis were performed. These studies sought to test the neuroprotective effect of BN201 and were conducted in the neurodegenerative and demyelinating experimental autoimmune encephalomyelitis (EAE) mouse model. Immune response to Myelin Basic Protein (MBP) or Myelin Proteolipid Protein (PLP) induces lesions located predominantly in the spinal cord whereas immunization with Myelin Oligodendrocyte Glycoprotein (MOG) generates lesions located predominantly in the optic nerve and spinal cord. In the literature, the EAE model is commonly used as a model of MS and optic neuritis, since it can cause irreversible visual loss (Kezuka et al, Analysis of the pathogenesis of experimental autoimmune optic neuritis. J Biomed Biotechnol. 2011; 2011:294046; Guo et al, Decreased neural stem/progenitor cell proliferation in mice with chronic/nonremitting experimental autoimmune encephalomyelitis. Neurosignals. 2010; 18(1):1-8).
Study EAE-C03: daily i.p. administration of BN201 at two different concentrations was tested versus placebo according to the following experimental design: • EAE affected placebo-treated animals (pathological control group); • EAE-affected animals treated with BN201 at 50 mg/kg dose and • EAE-affected animals treated with BN201 at 100 mg/kg dose. […]

## CC(C)CN(CC(=O)N(CCCN1CCCC1=O)CC(N)=O)C(=O)CNCCc1ccccc1F [BN201, [N-(2-(2′-Fluorophenyl)ethyl)glycyl]-[N-(2-methylpropyl)glycyl]-N-[3-(2′-oxopyrrolidinyl)-propyl]glycinamide]
[1]
  course of EAE in chronic phase (clinical score): not efficacious
[2]; 50 mg/kg daily
  clinical score: significant amelioration of the clinical score
[2]; 100 mg/kg daily
  clinical score: significant amelioration of the clinical score
[3]; 50 mg/kg daily i.p.
  clinical score compared to placebo: significantly decreased the clinical score
[3]; 100 mg/kg daily i.p.
  clinical score compared to placebo: significantly decreased the clinical score
